Assay results published in patent publication US9481688B2, “(Thieno[2,3-b][1,5]benzoxazepin-4-yl)piperazin-1-yl compounds as dual activity H1 inverse agonists/5-HT2A antagonists” (Eli Lilly and Company, priority 2011, dated 2016).
Where a name gives a salt, the structure may show the parent alone.

Experiments:
[1] = biological target: T1, human recombinant H1 receptor (Homo sapiens (Human), UniProt P35367); assay: H1 competition binding assay ([3H]-Pyrilamine, SPA); conditions: dihydrochloride
Description: [^3H]-Pyrilamine binding experiments are carried out in SPA (scintillation proximity assay) 96-well format. Membranes used in this assay are prepared from HEK-293 cells stably expressing recombinant H1 receptor (human). The incubation is initiated by the addition of a mixture of WGA PVT SPA beads (1 mg/well, Perkin Elmer (MA, USA) RPNQ0001) and 3 μg membranes to assay buffer (67 mM Tris; pH 7.6) containing 3.5 nM [^3H]-Pyrilamine and varying concentrations of the test compound (10 point concentration response curves). Non-specific binding is determined in the presence of 10 μM Triprolidine. Samples are incubated for 4 hr. at room temperature (22° C.) and then read in a Microbeta Trilux.
Curves are evaluated using a 4-parameter logistic nonlinear equation to obtain the concentration of competitor causing 50% inhibition of radioligand binding (IC50). Equilibrium dissociation constants (Ki) are calculated according to the equation Ki=IC50/(1+L/Kd), where L equals the concentration of radioligand used in the experiment and Kd equals the equilibrium dissociation constant of the radioligand for the receptor, determined from standard saturation analysis or homologous competition experiments. Reported values for Ki, where n values are indicated, are shown as geometric mean±the standard error of the mean (SEM), with the number of replicate determinations indicated by n. […]

5-HT2B [2] = biological target: T2, 5-HT2B (Homo sapiens (Human), UniProt P41595); assay: 5-HT2B binding
Excerpt: (§1) Further, the compounds of the invention may be tested in binding assays and functional activity assays by well known methods for other physiologically important receptors such as, but not limited to, the hERG channel, other serotonin receptors (specifically 5-HT1B, 5-HT1D, receptors, lack of agonist activity at 5-HT2B receptors, 5-HT2C, 5-HT5, 5-HT6, and 5-HT7 receptors), dopaminergic receptors (specifically D1, D2, and D3), GABAA receptors, adrenergic receptors and monoamine transporters.

5-HT2A receptor = 5-HT2A receptor (Mus musculus (Mouse), UniProt P35363); assay: Inhibition of DOI induced headshake activity; format: in vivo; conditions: 10 mg/kg PO, mice, 60 min. pre-treatment, read-out: inhibition of DOI induced headshake response
Excerpt: J Neurosci Methods. […] Recording Environment. […] Relative humidity averages approximately 50%. […] Study Design and Dosing. […] Data Collection. […] Statistical Analysis.

5-HT2B [3] = biological target: T2, 5-HT2B; assay: 5-HT2B antagonist functional activity; format: biochemical
Excerpt: as §1

Adrenergic alpha1B = Adrenergic alpha1B (Homo sapiens (Human), UniProt P35368); assay: Adrenergic alpha1B binding
Excerpt: as §1

Adrenergic alpha2C = Adrenergic alpha2C (Homo sapiens (Human), UniProt P18825); assay: Adrenergic alpha2C binding
Excerpt: as §1

5-HT5 = 5-HT5 (Homo sapiens (Human), UniProt P47898); assay: 5-HT5 binding
Excerpt: as §1

Adrenergic alpha2B = Adrenergic alpha2B (Homo sapiens (Human), UniProt P18089); assay: Adrenergic alpha2B binding
Excerpt: as §1

[4] = Plasma clearance in rat (intravenous); format: in vivo; conditions: 1 mg/kg, dihydrochloride
Description: Male Sprague Dawley rats (body weight range 250-320 g) with indwelling femoral arterial cannulae are obtained from Charles River, Wilmington, Mass. 01887, USA. Test compound is administered intravenously in solution (1 mL/kg) in 20% Captisol® in 22.5 mM phosphate buffer, pH 2, at a final drug concentration of 1.0 mg/mL (free base equivalents). Blood samples are obtained using the indwelling cannula over 24 hr. Samples of plasma are obtained by centrifugation and stored frozen (−20° C.), or on dry ice, prior to analysis.
Frozen plasma samples are thawed to room temperature for bioanalysis of concentrations of test compound. A related internal standard compound in acetonitrile/methanol (1:1, v/v) is added to all samples of plasma (1:1, v/v). The samples are centrifuged to remove precipitated protein prior to analysis. The supernatants are analysed by injection and rapid gradient elution on a Javelin Betasil C18 column (20×2.1 mm cartridge, Mobile phase A: Water/1 M NH4HCO3, 2000:10 v/v, Mobile Phase B: MeOH/1 M NH4HCO3, 2000:10 v/v). The eluted analytes are detected by LC-MS-MS analysis using a Sciex API 4000 triple quadrupole mass spectrometer. Concentrations of compound are determined from standards prepared and analysed under identical conditions. Clearance is calculated using non-compartmental analysis in Watson 7.4, Thermo Fisher Scientific, Inc.

[5] = biological target: T1, human recombinant H1 receptor; assay: H1 inverse agonism (IP1 accumulation in HEK293/hm H1 cells); format: cell-based; conditions: n=2
Adrenergic alpha2A = Adrenergic alpha2A (Homo sapiens (Human), UniProt P08913); assay: Adrenergic alpha2A binding
Excerpt: as §1

Dopamine D3 = Dopamine D3 (Homo sapiens (Human), UniProt P35462); assay: Dopamine D3 binding; conditions: dihydrochloride
Excerpt: as §1

Adrenergic alpha1A = Adrenergic alpha1A (Homo sapiens (Human), UniProt P35348); assay: Adrenergic alpha1A binding
Excerpt: as §1

T1 sequence (P35367 whole entry): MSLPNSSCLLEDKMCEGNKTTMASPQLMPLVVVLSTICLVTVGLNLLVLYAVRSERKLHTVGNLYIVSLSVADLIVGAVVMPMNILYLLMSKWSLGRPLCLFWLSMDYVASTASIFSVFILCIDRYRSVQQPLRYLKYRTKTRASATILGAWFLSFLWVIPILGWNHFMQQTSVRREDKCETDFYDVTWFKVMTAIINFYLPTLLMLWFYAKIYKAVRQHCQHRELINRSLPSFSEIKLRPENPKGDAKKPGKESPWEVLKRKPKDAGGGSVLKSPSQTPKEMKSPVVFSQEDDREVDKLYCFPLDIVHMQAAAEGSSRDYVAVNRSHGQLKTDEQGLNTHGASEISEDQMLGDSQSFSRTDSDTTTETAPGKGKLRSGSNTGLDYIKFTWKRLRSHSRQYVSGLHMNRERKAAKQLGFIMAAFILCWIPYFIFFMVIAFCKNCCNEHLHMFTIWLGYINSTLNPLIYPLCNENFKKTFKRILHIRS
T2 sequence (P41595 whole entry, species assumed): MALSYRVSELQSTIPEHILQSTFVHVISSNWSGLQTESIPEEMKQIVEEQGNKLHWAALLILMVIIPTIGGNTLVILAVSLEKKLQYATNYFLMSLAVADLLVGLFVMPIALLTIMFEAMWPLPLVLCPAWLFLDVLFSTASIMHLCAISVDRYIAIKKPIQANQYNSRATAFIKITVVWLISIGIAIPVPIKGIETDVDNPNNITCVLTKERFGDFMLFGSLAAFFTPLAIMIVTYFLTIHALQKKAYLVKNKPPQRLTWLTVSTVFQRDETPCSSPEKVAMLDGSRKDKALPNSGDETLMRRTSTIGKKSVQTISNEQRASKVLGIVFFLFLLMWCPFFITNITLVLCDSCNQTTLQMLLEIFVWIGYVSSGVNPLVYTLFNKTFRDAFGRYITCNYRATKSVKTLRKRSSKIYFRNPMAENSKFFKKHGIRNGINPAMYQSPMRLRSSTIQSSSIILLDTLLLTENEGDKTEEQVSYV
Adrenergic alpha2C, sequence (P18825 whole entry): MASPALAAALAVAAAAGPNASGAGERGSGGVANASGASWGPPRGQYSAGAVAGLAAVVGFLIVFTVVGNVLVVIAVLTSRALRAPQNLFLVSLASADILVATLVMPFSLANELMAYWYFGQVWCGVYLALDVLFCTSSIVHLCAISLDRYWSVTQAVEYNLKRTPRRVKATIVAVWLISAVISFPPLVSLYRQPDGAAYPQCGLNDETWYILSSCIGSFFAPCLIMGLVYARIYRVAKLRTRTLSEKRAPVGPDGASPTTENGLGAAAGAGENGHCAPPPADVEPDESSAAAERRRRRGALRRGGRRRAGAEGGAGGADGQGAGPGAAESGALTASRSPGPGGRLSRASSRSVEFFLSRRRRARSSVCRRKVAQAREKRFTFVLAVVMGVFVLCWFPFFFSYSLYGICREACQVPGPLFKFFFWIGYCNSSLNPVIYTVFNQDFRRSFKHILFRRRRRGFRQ
Adrenergic alpha1B, sequence (P35368 whole entry): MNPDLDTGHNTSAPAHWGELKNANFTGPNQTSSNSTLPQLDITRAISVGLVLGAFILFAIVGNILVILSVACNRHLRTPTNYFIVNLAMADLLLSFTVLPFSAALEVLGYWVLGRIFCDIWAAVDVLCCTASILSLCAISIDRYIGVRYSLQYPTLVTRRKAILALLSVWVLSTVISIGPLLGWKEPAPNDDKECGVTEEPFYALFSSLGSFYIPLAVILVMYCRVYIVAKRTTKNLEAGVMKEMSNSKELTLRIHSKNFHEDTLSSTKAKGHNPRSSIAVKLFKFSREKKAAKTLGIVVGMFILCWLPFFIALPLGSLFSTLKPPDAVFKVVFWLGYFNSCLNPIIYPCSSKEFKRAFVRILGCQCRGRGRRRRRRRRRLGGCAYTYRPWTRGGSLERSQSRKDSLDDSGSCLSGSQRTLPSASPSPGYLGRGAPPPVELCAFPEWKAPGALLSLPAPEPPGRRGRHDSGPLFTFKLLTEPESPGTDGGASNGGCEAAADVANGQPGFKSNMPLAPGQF
5-HT5, sequence (P47898 whole entry, species assumed): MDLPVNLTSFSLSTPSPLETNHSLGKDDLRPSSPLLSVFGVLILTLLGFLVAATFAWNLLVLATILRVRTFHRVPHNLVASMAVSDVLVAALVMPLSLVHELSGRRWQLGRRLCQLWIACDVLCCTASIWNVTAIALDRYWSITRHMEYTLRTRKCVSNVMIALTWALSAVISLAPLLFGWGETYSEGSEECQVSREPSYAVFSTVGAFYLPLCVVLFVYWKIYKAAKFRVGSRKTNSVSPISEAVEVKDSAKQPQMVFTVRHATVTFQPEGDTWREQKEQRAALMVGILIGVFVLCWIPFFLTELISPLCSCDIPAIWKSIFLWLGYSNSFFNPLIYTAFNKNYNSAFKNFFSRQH
Adrenergic alpha2A, sequence (P08913 whole entry): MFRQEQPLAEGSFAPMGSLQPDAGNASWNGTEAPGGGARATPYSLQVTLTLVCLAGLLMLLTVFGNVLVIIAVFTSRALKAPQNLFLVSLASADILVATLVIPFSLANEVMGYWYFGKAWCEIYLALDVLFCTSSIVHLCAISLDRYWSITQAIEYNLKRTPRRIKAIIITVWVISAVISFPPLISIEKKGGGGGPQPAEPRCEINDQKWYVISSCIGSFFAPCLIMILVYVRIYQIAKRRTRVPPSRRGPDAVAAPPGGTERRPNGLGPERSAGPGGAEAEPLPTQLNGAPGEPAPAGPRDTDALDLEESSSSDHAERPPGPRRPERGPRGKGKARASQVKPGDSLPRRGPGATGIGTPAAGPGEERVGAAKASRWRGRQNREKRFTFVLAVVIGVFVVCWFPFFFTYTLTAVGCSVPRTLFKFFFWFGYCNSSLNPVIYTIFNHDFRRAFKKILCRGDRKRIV
Dopamine D3, sequence (P35462 whole entry): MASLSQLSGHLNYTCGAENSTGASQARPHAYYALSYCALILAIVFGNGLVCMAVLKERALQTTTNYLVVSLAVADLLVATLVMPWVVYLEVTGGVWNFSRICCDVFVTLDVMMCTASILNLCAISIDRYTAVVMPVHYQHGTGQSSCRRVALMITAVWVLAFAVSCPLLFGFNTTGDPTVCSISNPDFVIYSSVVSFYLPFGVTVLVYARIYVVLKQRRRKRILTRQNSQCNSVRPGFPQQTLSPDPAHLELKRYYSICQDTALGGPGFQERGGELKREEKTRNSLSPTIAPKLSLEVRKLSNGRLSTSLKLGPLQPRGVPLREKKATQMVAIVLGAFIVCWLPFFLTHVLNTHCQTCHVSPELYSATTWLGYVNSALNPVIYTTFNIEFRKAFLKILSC
Adrenergic alpha1A, sequence (P35348 whole entry): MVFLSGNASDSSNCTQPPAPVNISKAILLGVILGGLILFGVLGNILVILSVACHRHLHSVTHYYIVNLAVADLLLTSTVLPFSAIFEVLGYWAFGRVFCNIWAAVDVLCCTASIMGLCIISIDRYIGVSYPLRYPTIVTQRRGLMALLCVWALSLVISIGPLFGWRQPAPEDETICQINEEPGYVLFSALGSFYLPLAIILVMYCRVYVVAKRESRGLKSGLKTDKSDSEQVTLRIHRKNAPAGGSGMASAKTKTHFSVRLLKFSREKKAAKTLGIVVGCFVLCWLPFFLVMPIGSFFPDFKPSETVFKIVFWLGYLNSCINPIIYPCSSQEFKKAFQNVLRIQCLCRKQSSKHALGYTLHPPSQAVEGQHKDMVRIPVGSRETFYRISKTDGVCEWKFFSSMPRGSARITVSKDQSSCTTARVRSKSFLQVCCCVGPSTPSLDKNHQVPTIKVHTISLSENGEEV
Adrenergic alpha2B, sequence (P18089 whole entry): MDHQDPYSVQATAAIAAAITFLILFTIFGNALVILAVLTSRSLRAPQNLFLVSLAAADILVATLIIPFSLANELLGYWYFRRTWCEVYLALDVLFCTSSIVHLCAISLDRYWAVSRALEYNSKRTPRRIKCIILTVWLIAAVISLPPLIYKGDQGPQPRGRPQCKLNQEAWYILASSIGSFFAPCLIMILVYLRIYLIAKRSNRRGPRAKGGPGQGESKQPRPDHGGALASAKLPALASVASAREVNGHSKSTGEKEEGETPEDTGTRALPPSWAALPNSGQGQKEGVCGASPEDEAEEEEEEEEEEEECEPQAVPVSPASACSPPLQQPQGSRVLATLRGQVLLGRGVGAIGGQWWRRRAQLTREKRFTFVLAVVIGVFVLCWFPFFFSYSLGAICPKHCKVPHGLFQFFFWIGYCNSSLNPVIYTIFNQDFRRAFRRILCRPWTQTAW

## Cc1ccc2c(c1)Oc1sc(Cl)cc1C(N1CCN(CC(C)(C)C(=O)O)CC1)=N2 [Example 3, 3-[4-(2-chloro-8-methyl-thieno[2,3-b][1,5]benzoxazepin-4-yl)piperazin-1-yl]-2,2-dimethyl-propanoic acid dihydrochloride]
[1]
  Ki: 0.0588 µM
5-HT2B [2]
  Ki: 0.121 µM
5-HT2A receptor
  inhibition at 10 mg/kg: 100%
5-HT2B [3]
  Kb: 0.0786 µM
Adrenergic alpha1B
  Ki: > 14.7 µM
Adrenergic alpha2C
  Ki: > 4.23 µM
5-HT5
  Ki: > 8.81 µM
Adrenergic alpha2B
  Ki: > 5.76 µM
[4]
  clearance: 14.5 (+/−1.4, n = 3) mL/min./Kg
[5]; at 1 μM
  suppression of constitutive activity (IP1), relative to Tripelennamine: 105%
[5]; at 10 μM
  suppression of constitutive activity (IP1), relative to Tripelennamine: 85%
Adrenergic alpha2A
  Ki: > 8.99 µM
Dopamine D3
  Ki: > 5.68 µM
Adrenergic alpha1A
  Ki: > 10.2 µM
